The assay deals with IvoA (Aspergillus nidulans, UniProt C8V7P4). The assay can be described thus: chiral HPLC of D-tryptophan formation, steady-state kinetics. The assay is classed as biochemical. Conditions: substrate inhibition; ATP-dependent stereoinversion, apparent constant.
IvoA, sequence (C8V7P4 whole entry): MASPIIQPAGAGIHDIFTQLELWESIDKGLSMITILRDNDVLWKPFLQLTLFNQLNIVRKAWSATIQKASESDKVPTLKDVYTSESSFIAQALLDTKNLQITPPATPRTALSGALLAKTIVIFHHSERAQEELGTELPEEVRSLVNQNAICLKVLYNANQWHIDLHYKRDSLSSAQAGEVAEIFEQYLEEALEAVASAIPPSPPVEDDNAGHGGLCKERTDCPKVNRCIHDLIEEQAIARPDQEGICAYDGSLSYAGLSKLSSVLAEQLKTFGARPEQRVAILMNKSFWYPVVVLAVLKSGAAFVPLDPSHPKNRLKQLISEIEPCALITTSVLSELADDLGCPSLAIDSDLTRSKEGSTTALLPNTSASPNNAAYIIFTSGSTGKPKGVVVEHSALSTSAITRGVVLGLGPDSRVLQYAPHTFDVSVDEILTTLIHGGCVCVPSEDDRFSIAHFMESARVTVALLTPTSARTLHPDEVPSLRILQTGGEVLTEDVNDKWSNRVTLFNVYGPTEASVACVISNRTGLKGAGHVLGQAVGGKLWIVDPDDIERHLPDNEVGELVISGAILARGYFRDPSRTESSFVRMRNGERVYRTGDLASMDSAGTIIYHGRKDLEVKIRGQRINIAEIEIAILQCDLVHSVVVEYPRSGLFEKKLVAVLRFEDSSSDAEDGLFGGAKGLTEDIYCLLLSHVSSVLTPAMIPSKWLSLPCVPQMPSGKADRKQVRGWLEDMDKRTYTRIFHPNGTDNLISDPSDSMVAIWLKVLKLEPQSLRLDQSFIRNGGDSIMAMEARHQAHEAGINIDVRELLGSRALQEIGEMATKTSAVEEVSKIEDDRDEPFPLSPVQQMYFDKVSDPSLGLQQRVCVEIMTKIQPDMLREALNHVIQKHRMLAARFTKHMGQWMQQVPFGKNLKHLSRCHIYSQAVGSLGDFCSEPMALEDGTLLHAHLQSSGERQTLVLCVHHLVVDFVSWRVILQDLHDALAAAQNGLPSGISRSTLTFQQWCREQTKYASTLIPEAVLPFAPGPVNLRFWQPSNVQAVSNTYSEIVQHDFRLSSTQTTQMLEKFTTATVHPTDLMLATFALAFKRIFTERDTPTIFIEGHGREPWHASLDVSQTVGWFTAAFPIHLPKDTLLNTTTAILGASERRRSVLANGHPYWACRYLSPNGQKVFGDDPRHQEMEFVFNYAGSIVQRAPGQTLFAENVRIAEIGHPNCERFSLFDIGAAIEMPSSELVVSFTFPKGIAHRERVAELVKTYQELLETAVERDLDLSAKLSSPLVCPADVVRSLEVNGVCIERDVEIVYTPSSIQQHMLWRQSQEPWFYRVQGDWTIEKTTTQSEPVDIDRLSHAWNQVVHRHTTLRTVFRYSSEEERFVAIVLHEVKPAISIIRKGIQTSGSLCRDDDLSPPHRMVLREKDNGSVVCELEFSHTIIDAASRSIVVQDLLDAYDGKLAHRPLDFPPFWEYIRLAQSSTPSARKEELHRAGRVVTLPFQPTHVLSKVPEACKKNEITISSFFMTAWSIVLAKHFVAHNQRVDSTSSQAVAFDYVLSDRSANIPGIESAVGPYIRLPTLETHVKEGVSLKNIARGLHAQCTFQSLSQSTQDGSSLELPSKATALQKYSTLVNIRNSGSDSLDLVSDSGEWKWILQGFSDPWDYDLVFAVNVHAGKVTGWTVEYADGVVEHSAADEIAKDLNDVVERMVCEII

On to `N[C@@H](Cc1c[nH]c2ccccc12)C(=O)O` [L-tryptophan], for which the Ki app was 4 ± 1 mM.

Values taken from article PMC6927398 (Journal of the American Chemical Society, 2019).
